According to patent US20230190755A1, “Topical formulations of PI3K-delta inhibitors” (Incyte Corporation, priority 2021, published 2023):
Where a name gives a salt, the structure may show the parent alone.

What was measured:
[1] = target: T1, PI3Kα (Homo sapiens, UniProt P42336); assay: PI3K enzyme assay of Example 7 ([γ-33P]ATP filter plate); type: biochemical
T1 construct: purchased Millipore (Bedford, Mass.)
Description: (§1) Materials: Lipid kinase substrate, phosphoinositol-4,5-bisphosphate (PIP2), are purchased from Echelon Biosciences (Salt Lake City, Utah). PI3K isoforms α, β, δ and γ are purchased from Millipore (Bedford, Mass.). ATP, MgCl2, DTT, EDTA, MOPS and CHAPS are purchased from Sigma-Aldrich (St. Louis, Mo.).
(§2) The kinase reaction are conducted in clear-bottom 96-well plate from Thermo Fisher Scientific in a final volume of 24 μL. Inhibitors are first diluted serially in DMSO and added to the plate wells before the addition of other reaction components. The final concentration of DMSO in the assay is 0.5%. The PI3K assays are carried out at room temperature in 20 mM MOPS, pH 6.7, 10 mM MgCl2, 5 mM DTT and CHAPS 0.03%. The reaction mixture is prepared containing 50 μM PIP2, kinase and varying concentration of inhibitors. Reactions are initiated by the addition of ATP containing 2.2 μCi [γ-^33P]ATP to a final concentration of 1000 μM. The final concentration of PI3K isoforms α, β, δ and γ in the assay were 1.3, 9.4, 2.9 and 10.8 nM, respectively. Reactions are incubated for 180 minutes and terminated by the addition of 100 μL of 1 M potassium phosphate pH 8.0, 30 mM EDTA quench buffer. A 100 μL aliquot of the reaction solution are then transferred to 96-well Millipore MultiScreen IP 0.45 μm PVDF filter plate (The filter plate is prewetted with 200 μL 100% ethanol, distilled water, and 1 M potassium phosphate pH 8.0, respectively). The filter plate is aspirated on a Millipore Manifold under vacuum and washed with 18×200 μL wash buffer containing 1 M potassium phosphate pH 8.0 and 1 mM ATP. After drying by aspiration and blotting, the plate is air dried in an incubator at 37° C. overnight. Packard TopCount adapter (Millipore) is then attached to the plate followed with addition of 120 μL Microscint 20 scintillation cocktail (Perkin Elmer) in each well. After the plate sealing, the radioactivity of the product is determined by scintillation counting on Topcount (Perkin-Elmer). IC50 determination is performed by fitting the curve of percent control activity versus the log of the inhibitor concentration using the GraphPad Prism 3.0 software.

[2] = target: T2, PI3Kδ (Homo sapiens, UniProt O00329); assay: as above; type: biochemical
T2 construct: purchased Millipore (Bedford, Mass.)
Description: as §1, §2

[3] = target: T3, PI3Kγ (Homo sapiens, UniProt P48736); assay: as above; type: biochemical
T3 construct: purchased Millipore (Bedford, Mass.)
Description: as §1, §2

[4] = target: T4, PI3Kβ (Homo sapiens, UniProt P42338); assay: as above; type: biochemical
T4 construct: purchased Millipore (Bedford, Mass.)
Description: as §1, §2

[5] = Free fraction by equilibrium dialysis, human plasma and homogenized human skin; type: in vitro ADME
Description: (§3) The concentration of Compound A was measured in the epidermis, dermis, and plasma 24 hours post application. Dermal concentrations in minipigs dosed with 1.0% w/w topical formulation were 8× higher compared with dermal concentrations in minipigs dosed with the 0.1% topical formulation. The epidermal concentration for 1.0% w/w topical formulation was 6× higher compared with the 0.1% w/w topical dose. The epidermal concentrations accounted for the combined drug levels in the stratum corneum and viable epidermis layers (i.e., skin samples were not tape stripped). Relatedly, the free fraction of Compound A in plasma and homogenized human skin was evaluated by equilibrium dialysis studies. The mean free fraction in human plasma and skin was […] respectively. In minipigs, the free fraction in plasma was measured at 3.1%.

[6] = Free fraction in plasma, minipig; type: in vitro ADME
Description: as §3

[7] = target: PI3Kδ (p110δ/p85α) (Homo sapiens, UniProt O00329); assay: PI3Kδ scintillation proximity assay (Example 8); type: biochemical; conditions: 20 μM ATP, 4 nM PI3Kδ
Source text: Lipid kinase substrate, D-myo-Phosphatidylinositol 4,5-bisphosphate (PtdIns(4,5)P2)D (+)-sn-1,2-di-O-octanoylglyceryl, 3-O-phospho linked (PIP2), CAS 204858-53-7, was purchased from Echelon Biosciences (Salt Lake City, Utah). PI3Kδ (p110δ/p85α) was purchased from Millipore (Bedford, Mass.). ATP, MgCl2, DTT, EDTA, MOPS and CHAPS were purchased from Sigma-Aldrich (St. Louis, Mo.). Wheat Germ Agglutinin (WGA) YSi SPA Scintillation Beads was purchased from GE healthcare life sciences (Piscataway, N.J.).
The kinase reaction was conducted in polystyrene 384-well matrix white plate from Thermo Fisher Scientific in a final volume of 25 μL. Inhibitors were first diluted serially in DMSO and added to the plate wells before the addition of other reaction components. The final concentration of DMSO in the assay was 0.5%. The PI3K assays were carried out at room temperature in 20 mM MOPS, pH 6.7, 10 mM MgCl2, 5 mM DTT and CHAPS 0.03%. […] ATP, 4 nM PI3Kδ. Reactions were incubated for 210 min and terminated by the addition of 40 μL SPA beads suspended in quench buffer: 150 mM potassium phosphate pH 8.0, 20% glycerol. 25 mM EDTA, 400 μM ATP. […] After the plate sealing, plates were shaken overnight at room temperature and centrifuged at 1800 rpm for 10 minutes, the radioactivity of the product was determined by scintillation counting on Topcount (Perkin-Elmer). […]

[8] = IC90 value in the dermis
Description: Based on initial studies it is believed that topical administration of a strength of 0.01% may result in mean plasma concentration of approximately 1 nM at steady state.

T3 sequence (P48736 whole entry): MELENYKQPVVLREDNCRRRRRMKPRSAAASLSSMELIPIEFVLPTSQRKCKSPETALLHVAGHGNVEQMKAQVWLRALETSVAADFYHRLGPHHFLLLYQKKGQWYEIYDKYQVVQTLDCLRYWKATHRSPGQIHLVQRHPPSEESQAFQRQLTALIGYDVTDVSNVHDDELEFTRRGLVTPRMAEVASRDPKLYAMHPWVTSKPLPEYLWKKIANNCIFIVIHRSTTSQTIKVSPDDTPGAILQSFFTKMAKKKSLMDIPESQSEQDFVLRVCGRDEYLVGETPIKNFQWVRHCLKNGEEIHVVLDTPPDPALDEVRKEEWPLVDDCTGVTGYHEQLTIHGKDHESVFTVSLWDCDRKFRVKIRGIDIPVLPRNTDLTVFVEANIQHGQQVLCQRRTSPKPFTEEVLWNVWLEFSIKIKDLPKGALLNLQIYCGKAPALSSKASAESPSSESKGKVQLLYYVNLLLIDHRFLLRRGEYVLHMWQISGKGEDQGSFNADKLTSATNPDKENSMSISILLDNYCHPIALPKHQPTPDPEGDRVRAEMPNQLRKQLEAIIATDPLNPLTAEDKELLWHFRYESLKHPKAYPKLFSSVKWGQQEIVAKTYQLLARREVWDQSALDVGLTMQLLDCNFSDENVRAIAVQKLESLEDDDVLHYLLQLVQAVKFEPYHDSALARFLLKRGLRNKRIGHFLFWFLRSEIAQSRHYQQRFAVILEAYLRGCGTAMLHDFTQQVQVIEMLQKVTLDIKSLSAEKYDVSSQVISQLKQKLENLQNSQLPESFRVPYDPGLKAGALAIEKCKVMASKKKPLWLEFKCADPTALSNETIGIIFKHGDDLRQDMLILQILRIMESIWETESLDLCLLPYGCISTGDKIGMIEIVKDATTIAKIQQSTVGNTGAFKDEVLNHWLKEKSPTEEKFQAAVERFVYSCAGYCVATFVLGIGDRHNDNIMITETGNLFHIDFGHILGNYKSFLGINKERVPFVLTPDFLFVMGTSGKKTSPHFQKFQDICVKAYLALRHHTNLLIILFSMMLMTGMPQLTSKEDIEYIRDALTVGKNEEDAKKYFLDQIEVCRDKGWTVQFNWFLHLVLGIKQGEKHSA
PI3Kδ (p110δ/p85α), sequence (O00329 whole entry): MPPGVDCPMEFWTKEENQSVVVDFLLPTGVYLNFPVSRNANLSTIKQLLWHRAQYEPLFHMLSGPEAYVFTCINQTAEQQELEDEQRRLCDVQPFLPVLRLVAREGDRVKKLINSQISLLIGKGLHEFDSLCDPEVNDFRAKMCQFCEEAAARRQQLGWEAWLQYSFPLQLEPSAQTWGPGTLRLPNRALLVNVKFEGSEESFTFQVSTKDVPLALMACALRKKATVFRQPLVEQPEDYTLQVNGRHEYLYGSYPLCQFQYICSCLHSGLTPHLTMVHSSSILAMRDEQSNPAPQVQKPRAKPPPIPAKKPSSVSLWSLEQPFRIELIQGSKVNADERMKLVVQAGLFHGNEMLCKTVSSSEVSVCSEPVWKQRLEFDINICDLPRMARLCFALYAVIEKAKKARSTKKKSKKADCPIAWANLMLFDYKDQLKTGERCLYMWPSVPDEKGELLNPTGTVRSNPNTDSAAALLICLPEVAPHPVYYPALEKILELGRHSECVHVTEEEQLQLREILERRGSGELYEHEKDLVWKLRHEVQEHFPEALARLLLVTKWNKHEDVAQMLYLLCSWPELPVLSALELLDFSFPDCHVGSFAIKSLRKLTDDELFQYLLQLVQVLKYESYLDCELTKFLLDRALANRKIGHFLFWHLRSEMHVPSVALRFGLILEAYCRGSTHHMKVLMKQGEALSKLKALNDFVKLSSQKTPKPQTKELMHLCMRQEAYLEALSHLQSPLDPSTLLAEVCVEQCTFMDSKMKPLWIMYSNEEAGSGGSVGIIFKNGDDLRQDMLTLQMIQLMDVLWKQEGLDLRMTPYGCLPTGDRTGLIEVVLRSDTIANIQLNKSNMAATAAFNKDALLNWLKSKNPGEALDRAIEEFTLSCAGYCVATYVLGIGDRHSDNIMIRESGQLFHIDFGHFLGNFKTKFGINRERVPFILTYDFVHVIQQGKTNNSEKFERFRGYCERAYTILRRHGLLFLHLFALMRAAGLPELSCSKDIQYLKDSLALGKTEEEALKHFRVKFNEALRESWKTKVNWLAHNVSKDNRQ
PI3Kδ (p110δ/p85α), sequence (P27986 whole entry partner): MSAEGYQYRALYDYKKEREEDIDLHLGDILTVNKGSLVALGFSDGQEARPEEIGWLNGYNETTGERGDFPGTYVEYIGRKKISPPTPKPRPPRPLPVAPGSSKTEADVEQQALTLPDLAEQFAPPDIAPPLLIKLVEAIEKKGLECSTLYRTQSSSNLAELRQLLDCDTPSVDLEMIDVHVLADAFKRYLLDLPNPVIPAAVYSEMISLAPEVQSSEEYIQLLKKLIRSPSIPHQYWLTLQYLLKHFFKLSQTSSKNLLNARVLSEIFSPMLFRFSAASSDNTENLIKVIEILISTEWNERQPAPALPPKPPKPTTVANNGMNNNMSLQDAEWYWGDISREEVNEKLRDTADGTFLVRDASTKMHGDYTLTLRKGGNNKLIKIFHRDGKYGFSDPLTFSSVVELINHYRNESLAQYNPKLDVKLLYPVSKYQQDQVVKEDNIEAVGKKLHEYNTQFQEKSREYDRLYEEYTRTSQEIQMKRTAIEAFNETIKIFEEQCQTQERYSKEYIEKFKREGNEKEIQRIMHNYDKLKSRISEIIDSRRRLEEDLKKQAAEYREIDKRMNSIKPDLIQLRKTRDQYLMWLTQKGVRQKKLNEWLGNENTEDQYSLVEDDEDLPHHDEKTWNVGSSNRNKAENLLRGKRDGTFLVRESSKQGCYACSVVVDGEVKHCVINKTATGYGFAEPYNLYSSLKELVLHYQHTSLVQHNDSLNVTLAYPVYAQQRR
T2 sequence (O00329 whole entry): as the sequence (O00329 whole entry) above
T2 sequence (P27986 whole entry partner): as the sequence (P27986 whole entry partner) above
T1 sequence (P42336 whole entry): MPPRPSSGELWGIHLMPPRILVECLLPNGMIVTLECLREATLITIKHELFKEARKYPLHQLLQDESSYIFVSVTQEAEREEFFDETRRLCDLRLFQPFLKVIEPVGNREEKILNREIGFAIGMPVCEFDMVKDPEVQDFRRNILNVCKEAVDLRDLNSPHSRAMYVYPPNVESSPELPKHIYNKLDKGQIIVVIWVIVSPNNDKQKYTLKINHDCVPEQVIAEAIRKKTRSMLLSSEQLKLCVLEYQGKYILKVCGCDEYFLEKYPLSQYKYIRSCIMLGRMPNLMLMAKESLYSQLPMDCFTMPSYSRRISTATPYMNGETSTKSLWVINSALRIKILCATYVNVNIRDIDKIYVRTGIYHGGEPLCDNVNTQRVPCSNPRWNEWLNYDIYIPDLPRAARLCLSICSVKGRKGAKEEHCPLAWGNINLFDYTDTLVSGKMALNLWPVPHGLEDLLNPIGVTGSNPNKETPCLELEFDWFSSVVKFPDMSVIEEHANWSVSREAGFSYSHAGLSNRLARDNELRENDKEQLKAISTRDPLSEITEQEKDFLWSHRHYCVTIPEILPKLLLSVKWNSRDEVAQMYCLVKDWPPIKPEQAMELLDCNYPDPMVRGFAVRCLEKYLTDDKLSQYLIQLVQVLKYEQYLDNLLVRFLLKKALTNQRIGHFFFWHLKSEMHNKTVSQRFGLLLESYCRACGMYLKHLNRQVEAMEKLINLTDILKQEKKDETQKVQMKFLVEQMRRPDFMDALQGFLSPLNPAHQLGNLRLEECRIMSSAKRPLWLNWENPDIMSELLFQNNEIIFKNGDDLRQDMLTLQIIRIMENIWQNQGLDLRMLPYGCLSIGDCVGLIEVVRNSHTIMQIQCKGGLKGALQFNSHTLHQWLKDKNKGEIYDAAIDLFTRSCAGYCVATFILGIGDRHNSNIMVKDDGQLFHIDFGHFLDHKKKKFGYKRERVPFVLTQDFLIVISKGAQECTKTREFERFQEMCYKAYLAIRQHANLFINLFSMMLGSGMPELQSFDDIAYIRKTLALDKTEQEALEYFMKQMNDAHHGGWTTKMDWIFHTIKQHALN
T1 sequence (P27986 whole entry partner): as the sequence (P27986 whole entry partner) above

For `CCOc1c([C@H](C)n2nc(C)c3c(N)ncnc32)cc(Cl)c(F)c1[C@@H]1CNC(=O)C1` [Compound A HCl, (R)-4-(3-((S)-1-(4-Amino-3-methyl-1H-pyrazolo[3,4-d]pyrimidin-1-yl)ethyl)-5-chloro-2-ethoxy-6-fluorophenyl)pyrrolidin-2-one Hydrochloric Acid Salt], the “selectivity for PI3Kδ over PI3Kα” value [1] was over 100 fold, the “selectivity for PI3Kδ (in words)” value [2] was “selective inhibitor for PI3Kδ” and the “selectivity for PI3Kδ over PI3Kγ” value [3] was over 100 fold. The “selectivity for PI3Kδ over PI3Kβ” value [4] was over 100 fold.

For `CCOc1c([C@H](C)n2nc(C)c3c(N)ncnc32)cc(Cl)c(F)c1[C@@H]1CNC(=O)C1` [Compound A, (R)-4-(3-((S)-1-(4-amino-3-methyl-1H-pyrazolo[3,4-d]pyrimidin-1-yl)ethyl)-5-chloro-2-ethoxy-6-fluorophenyl)pyrrolidin-2-one], the fraction unbound ([5]; homogenized skin, read-out: Mean free fraction in homogenized human skin) was 0.33, the fraction unbound ([5]; plasma, read-out: Mean free fraction in human plasma) was 0.074 and the fraction unbound [6] was 0.031. It also gave an IC50 [7] of under 10 nM and an IC90 [8] of about 20 nM.
